Converted amounts (≈) assume the structure as drawn. Read-outs that look alike come from different tables or passages of the source.
Legend:
[1] = target: C. lusitaniae/SIII (S. cerevisiae strain expressing C. lusitaniae eEF2) (Clavispora lusitaniae, UniProt C4YCF8); assay: SwordIII growth inhibition assay, C. lusitaniae/SIII strain; assay type: cell-based
Excerpt: (§1) Sordarin and its derivatives bind to the eEF2-ribosome-nucleotide complex in sensitive fungi. Through different in vitro assays using purified components from human, yeast and plant cells, it has been shown that the selective sensitivity to sordarin and its derivatives is dependent on fungal eEF2. The fungal specificity of the sordarin makes eEF2 an attractive anti-infective target. (J Biol Chem. 1998, Feb 6; 273(6):3148-51).
(§2) Specifically, natural products are screened which show a differential activity between the human control and the other strains, although a 100% differential is not required in the initial discovery effort. It may be possible to observe hits solely against the fungal eEF2s, and/or the protozoal eEF2s. In sum, SWORDIII is designed to identify inhibitors of fungal and protozoal eEF2s to provide opportunities for developing anti-infective agents with a unique and selective mechanism of action.
(§3) For this reason, the eEF2 encoding genes from different organisms and several species of pathogenic fungi have been cloned, characterized and expressed in S. cerevisiae at Merck Research Laboratory, as previously described (Microbiology 147:383-90, 2001). Site directed mutagenesis of the C. parapsilosis gene encoding eEF2 to create S521Y, N523S single mutants and the S521Y, N523S double mutant was accomplished by the PCR overlap extension technique (Gene 77:51-59, 1989). […]

[2] = system: C. albicans in vitro translation; assay: In vitro translation assay, C. albicans; assay type: biochemical; settings: average of three independent experiments, lower limit of sensitivity about 0.005 μg/ml
Method: (§4) In vitro translation assays were performed as described in Shastry, et al. Microbiology, 2001, 147(2):383-90. The IC50 values are the average of three independent experiments. The lower limit of sensitivity is about 0.005 μg/ml.

[3] = system: C. glabrata in vitro translation; assay: In vitro translation assay, C. glabrata; assay type: biochemical; settings: average of three independent experiments
Method: as §4

[4] = system: C. parapsilosis in vitro translation; assay: In vitro translation assay, C. parapsilosis; assay type: biochemical; settings: average of three independent experiments
Method: as §4

[5] = system: C. guilliermondi in vitro translation; assay: In vitro translation assay, C. guilliermondi; assay type: biochemical; settings: average of three independent experiments, lower limit of sensitivity about 0.005 μg/ml
Method: as §4

[6] = system: C. lusitaniae in vitro translation; assay: In vitro translation assay, C. lusitaniae; assay type: biochemical; settings: average of three independent experiments
Method: as §4

[7] = target: A. fumigatus/SIII (S. cerevisiae strain expressing A. fumigatus eEF2) (Aspergillus fumigatus, UniProt Q4X0G7); assay: SwordIII growth inhibition assay, A. fumigatus/SIII strain; assay type: cell-based
Excerpt: as §1, §2, §3

[8] = system: C. krusei in vitro translation; assay: In vitro translation assay, C. krusei; assay type: biochemical; settings: average of three independent experiments
Method: as §4

[9] = system: A. nidulans in vitro translation; assay: In vitro translation assay, A. nidulans; assay type: biochemical; settings: average of three independent experiments
Method: as §4

[10] = system: C. neoformans in vitro translation; assay: In vitro translation assay, C. neoformans; assay type: biochemical; settings: average of three independent experiments
Method: as §4

[11] = target: T1, S. cerevisiae/SIII (S. cerevisiae strain, S. cerevisiae eEF2) (Saccharomyces cerevisiae, UniProt P32324); assay: SwordIII growth inhibition assay, S. cerevisiae/SIII strain; assay type: cell-based
T1 construct: expressed in transfected cells; host or cells: S. cerevisiae Δeft1 Δeft2 deletion strain YEFD12h
Excerpt: as §1, §2, §3

[12] = target: Human/SIII (S. cerevisiae strain expressing human eEF2) (UniProt P13639, cells depend on it, species not given); assay: SwordIII growth inhibition assay, Human/SIII strain; assay type: cell-based
Excerpt: as §1, §2, §3

[13] = target: C. krusei/SIII (S. cerevisiae strain expressing C. krusei eEF2) (Pichia kudriavzevii, UniProt A0A2U9R6P9); assay: SwordIII growth inhibition assay, C. krusei/SIII strain; assay type: cell-based
Excerpt: as §1, §2, §3

[14] = target: E. tenella/SIII (S. cerevisiae strain expressing E. tenella eEF2) (Eimeria tenella, UniProt A0A184W4F4); assay: SwordIII growth inhibition assay, E. tenella/SIII strain; assay type: cell-based
Excerpt: as §1, §2, §3

[15] = system: S. cerevisiae in vitro translation; assay: In vitro translation assay, S. cerevisiae; assay type: biochemical; settings: average of three independent experiments, lower limit of sensitivity about 0.005 μg/ml
Method: as §4

[16] = target: C. neoformans/SIII (S. cerevisiae strain expressing C. neoformans eEF2) (Cryptococcus neoformans, UniProt Q9HFZ8); assay: SwordIII growth inhibition assay, C. neoformans/SIII strain; assay type: cell-based
Excerpt: as §1, §2, §3

[17] = target: T2, C. glabrata/SIII (S. cerevisiae strain expressing C. glabrata eEF2) (Candida glabrata, UniProt Q6FYA7); assay: SwordIII growth inhibition assay, C. glabrata/SIII strain; assay type: cell-based
T2 construct: S. cerevisiae strains expressing full length heterologous eEF2s; expressed in transfected cells; host or cells: S. cerevisiae Δeft1 Δeft2 deletion strain YEFD12h
Excerpt: as §1, §2, §3

[18] = SC medium, 29° C., approximately 16 hours, read-out: IC50 (μg/ml)
[19] = read-out: IC50 (μg/ml), SC medium, 29° C., approximately 16 hours

T2 sequence (Q6FYA7 whole entry): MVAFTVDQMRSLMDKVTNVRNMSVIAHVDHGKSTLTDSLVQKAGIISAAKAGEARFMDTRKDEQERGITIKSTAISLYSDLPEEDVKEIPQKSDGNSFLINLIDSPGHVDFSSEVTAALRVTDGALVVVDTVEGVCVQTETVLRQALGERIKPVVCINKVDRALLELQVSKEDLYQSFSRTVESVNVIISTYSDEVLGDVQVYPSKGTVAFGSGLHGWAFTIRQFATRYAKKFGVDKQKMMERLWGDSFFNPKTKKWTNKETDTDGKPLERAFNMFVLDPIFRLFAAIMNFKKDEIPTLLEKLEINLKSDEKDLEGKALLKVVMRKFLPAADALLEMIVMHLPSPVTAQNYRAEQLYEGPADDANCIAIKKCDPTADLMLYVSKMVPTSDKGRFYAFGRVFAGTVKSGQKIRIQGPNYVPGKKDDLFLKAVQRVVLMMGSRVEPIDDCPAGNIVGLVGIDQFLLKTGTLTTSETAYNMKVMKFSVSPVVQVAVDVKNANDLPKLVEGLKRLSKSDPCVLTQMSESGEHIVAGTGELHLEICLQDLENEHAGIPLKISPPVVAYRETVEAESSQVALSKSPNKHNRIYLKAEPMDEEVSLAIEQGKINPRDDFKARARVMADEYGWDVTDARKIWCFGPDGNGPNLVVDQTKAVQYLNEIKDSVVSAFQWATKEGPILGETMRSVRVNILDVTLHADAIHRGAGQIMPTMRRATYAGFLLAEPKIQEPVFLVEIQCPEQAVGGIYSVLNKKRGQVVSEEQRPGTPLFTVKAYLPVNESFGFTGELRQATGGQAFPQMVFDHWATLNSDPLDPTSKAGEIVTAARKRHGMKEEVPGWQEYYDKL
Chain of C. neoformans/SIII (S. cerevisiae strain expressing C. neoformans eEF2) (Q9HFZ8 1-838, change not shown): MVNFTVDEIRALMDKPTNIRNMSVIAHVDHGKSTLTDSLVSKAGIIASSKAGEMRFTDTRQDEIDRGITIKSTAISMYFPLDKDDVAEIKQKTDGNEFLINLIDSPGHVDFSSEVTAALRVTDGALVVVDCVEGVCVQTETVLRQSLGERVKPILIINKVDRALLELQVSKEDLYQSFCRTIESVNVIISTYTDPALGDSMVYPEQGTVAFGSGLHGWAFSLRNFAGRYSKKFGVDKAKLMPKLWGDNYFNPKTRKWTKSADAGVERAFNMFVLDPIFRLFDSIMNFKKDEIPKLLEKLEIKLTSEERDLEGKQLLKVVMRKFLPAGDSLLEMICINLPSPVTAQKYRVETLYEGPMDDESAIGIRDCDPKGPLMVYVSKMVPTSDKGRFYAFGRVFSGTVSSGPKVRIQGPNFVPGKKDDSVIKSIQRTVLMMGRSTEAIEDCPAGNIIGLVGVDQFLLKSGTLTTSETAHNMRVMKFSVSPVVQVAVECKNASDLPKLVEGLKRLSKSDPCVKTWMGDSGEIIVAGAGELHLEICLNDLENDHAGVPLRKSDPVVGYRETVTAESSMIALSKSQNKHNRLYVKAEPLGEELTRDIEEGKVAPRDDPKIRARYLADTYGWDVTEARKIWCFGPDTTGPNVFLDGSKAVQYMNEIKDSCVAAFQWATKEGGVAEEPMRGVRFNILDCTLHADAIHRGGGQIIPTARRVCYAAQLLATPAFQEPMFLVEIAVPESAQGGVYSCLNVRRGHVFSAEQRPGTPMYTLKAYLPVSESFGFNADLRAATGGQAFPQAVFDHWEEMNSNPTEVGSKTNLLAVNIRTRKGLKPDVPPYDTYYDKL
Chain of C. lusitaniae/SIII (S. cerevisiae strain expressing C. lusitaniae eEF2) (C4YCF8 1-830, change not shown): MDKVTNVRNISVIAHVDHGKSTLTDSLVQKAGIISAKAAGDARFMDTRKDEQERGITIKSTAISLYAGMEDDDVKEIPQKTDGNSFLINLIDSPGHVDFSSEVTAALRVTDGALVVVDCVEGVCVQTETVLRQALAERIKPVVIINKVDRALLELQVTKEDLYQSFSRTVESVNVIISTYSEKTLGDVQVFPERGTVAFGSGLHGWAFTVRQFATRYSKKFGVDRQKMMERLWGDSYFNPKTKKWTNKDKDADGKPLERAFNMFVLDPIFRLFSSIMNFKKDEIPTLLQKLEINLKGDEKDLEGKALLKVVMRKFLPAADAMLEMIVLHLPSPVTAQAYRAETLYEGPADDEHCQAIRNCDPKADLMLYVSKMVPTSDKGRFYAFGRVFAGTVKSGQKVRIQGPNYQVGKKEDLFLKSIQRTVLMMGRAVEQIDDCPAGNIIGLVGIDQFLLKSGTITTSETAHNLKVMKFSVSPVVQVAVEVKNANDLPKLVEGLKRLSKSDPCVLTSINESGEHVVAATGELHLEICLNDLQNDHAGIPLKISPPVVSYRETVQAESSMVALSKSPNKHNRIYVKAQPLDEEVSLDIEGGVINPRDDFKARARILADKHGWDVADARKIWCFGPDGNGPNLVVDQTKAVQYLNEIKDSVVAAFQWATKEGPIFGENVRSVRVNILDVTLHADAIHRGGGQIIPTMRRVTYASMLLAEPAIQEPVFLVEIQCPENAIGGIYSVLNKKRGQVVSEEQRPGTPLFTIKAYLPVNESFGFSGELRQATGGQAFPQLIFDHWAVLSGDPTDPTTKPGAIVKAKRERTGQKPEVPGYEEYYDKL
Chain of A. fumigatus/SIII (S. cerevisiae strain expressing A. fumigatus eEF2) (Q4X0G7 1-839, change not shown): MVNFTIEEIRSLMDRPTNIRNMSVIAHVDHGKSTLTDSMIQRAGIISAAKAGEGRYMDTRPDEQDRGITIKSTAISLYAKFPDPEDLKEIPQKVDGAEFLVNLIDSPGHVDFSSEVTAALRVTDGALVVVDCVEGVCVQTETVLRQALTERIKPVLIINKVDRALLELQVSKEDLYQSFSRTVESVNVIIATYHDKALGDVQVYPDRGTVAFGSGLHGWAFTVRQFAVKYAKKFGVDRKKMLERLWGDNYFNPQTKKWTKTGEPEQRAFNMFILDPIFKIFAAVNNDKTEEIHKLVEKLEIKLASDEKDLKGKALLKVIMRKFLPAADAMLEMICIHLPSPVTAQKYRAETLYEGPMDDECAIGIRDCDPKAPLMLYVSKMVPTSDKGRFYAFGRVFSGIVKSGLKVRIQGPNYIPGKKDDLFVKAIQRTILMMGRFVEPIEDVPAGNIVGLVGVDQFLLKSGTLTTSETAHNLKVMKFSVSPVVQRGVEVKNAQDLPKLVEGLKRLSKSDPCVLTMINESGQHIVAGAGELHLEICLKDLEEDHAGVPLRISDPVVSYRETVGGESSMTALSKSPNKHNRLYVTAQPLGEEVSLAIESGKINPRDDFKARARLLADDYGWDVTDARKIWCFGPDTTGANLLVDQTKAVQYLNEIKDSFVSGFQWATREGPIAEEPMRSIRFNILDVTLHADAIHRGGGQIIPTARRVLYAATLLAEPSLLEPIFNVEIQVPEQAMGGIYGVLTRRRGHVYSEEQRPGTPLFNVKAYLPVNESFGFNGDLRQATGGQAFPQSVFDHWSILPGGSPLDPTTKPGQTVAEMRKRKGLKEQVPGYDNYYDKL
Chain of E. tenella/SIII (S. cerevisiae strain expressing E. tenella eEF2) (A0A184W4F4 1-832, change not shown): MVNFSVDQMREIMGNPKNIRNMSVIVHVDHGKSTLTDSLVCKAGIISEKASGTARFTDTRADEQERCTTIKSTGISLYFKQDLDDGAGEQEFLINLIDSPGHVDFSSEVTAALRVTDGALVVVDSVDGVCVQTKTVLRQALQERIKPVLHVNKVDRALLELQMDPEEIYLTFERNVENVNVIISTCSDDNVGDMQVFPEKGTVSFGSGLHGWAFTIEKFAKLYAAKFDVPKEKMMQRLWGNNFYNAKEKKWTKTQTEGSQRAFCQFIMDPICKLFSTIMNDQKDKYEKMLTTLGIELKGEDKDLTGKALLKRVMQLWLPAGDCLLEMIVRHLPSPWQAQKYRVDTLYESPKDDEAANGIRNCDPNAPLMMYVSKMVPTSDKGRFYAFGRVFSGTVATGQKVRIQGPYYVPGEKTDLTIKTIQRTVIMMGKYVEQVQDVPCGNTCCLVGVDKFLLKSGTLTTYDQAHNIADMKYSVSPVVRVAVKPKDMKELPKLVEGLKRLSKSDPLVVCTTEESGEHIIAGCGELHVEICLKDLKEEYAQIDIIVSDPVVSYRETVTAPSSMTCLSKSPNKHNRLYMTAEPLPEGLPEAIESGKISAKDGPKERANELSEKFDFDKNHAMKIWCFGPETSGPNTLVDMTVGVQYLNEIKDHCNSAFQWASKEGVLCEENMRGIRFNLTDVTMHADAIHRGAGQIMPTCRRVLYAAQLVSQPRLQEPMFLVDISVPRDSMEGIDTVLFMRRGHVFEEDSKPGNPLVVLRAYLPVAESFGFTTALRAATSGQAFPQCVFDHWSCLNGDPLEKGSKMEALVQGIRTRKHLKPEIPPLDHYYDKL
Chain of C. krusei/SIII (S. cerevisiae strain expressing C. krusei eEF2) (A0A2U9R6P9 1-830, change not shown): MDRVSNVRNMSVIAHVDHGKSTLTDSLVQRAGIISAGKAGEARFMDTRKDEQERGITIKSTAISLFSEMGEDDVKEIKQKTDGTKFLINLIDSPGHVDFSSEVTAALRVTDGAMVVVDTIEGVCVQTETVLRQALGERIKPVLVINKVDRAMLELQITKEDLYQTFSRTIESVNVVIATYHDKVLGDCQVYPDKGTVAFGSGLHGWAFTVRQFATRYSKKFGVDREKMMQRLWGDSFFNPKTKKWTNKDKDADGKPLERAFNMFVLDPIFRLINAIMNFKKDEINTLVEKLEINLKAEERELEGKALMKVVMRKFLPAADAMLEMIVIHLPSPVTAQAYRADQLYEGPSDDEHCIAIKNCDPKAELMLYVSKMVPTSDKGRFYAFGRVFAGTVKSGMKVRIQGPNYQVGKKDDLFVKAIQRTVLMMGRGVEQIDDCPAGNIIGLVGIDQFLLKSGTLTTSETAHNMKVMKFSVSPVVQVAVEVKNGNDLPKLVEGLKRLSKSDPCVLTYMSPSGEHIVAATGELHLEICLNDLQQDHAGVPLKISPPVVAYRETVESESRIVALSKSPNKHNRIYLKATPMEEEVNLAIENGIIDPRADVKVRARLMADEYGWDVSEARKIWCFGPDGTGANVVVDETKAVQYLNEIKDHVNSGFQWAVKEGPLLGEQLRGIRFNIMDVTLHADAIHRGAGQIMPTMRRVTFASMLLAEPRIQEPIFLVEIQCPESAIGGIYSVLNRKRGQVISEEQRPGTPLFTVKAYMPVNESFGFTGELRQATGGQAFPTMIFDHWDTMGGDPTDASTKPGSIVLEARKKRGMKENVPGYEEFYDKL

Structure (SMILES)	IC50 [2]	IC50 [3]	IC50 [4]	IC50 [5]	IC50 [6]	IC50 [8]	IC50 [9]	IC50 [10]	IC50 [11]	IC50 [15]	IC50 [17]	also measured
CO[C@H]1[C@@H](O)[C@H](O)[C@H](OC[C@@]23C[C@@H]4[C@H](C)CC[C@H]4[C@@]4(C=O)CC2C=C(C(C)C)[C@@]34C(=O)O)O[C@@H]1C [Sordarin]	0.006 µg/mL (≈ 0.0122 µM)	0.036 µg/mL (≈ 0.0731 µM)	>100 µg/mL	0.01 µg/mL (≈ 0.0203 µM)	>100 µg/mL	>100 µg/mL	2.6 µg/mL (≈ 5.28 µM)	0.2 µg/mL (≈ 0.406 µM)	0.386 µM	0.006 µg/mL (≈ 0.0122 µM)	12.7 µM	IC50 [1, 18]: > 203 µM; IC50 [7, 18]: > 203 µM; GI50 [12, 18]: > 203 µM; IC50 [13, 18]: > 203 µM; IC50 [14, 18]: > 203 µM; IC50 [16, 18]: > 203 µM
COC1C(C)OC(OCC23CC4C(C)CCC4C4(C=O)CC2C=C(C(C)C)C43C(=O)O)C(O)C12OC(=O)C(CCCCCCCC(=O)O)O2 (stereo not shown) [The Compound of Formula I]	0.006 µg/mL	0.015 µg/mL	0.5 µg/mL	0.006 µg/mL	0.5 µg/mL	1 µg/mL	0.6 µg/mL	0.02 µg/mL	0.217 µM	0.006 µg/mL	7.24 µM	IC50 [1, 19]: > 29 µM; IC50 [7, 19]: 29 µM; GI50 [12, 19]: > 29 µM; IC50 [13, 19]: 21.7 µM; IC50 [14, 19]: > 29 µM; IC50 [16, 19]: 7.24 µM

Reference: patent US20040242904A1, “Novel sordarin derivative isolated from culture fermentations and functions as an antifungal agent” (priority 2001, published 2004)
